According to patent US4321212A, “Method for preparing an optically active α-cyano-3-phenoxybenzyl 2-(4-substituted-phenyl)isovalerate” (Sumitomo Chemical Company Limited, priority 1980, dated 1982):
In brackets after ≈: the same amount, converted by molar mass.

How the values were obtained:
[1] = tested on: houseflies; test: Topical application to female adult WHO-strain houseflies (Test Example 2); assay type: in vivo, housefly, WHO-strain (standard susceptible strain); conditions: 0.5 μl acetone solution to the thorax, female adults, 24 hours
Procedure: The compounds of this invention, (1), (2), (3), (4) and (5), were diluted with acetone to a predetermined concentration, and 0.5 μl of each solution was topically applied to the thorax of female adult WHO-strain houseflies (standard susceptible strain) with a microsyringe. The flies were placed in plastic cups each having a diameter of 11 cm in which a bait (3% sugar water) was placed. 24 hours later, the alive and dead was evaluated to determine the LD50 (median lethal dose) (μg/housefly).

[2] = tested on: tobacco cutworms; test: Leaf-dip test on fourth instar larvae of tobacco cutworms (Test Example 1); assay type: in vivo, tobacco cutworm; conditions: foliar, cabbage leaf dip 1 minute, emulsifiable concentrate diluted with water, 24 hours, 10 larvae per group, three replications, read-out: LC50 (concentration required for 50% death)
Procedure: Each of the emulsifiable concentrates prepared from the compounds of this invention, (4) and (5), in the procedures described in Formulation Example 2 was diluted with water to a pre-determined concentration, and mixed with 3,000 times by weight based on the diluted solution of a spreader (Shin-Rino, a registered trademark of Nippon Noyaku Co., Ltd., for a mixture containing 20% of an alkylphenol polyethylene glycol ether and 12% of a salt of lignin sulfonic acid).
The dried leaves were placed in plastic cups (diameter 10 cm, height 4 cm) at a rate of 2 leaves/cup, and the fourth instar larvae of tobacco cutworms were liberated therein. The dead and alive was evaluated after 24 hours and the values of LC50 (concentration required for 50% death) were obtained.
Experiments of three replications were carried out using 10 larvae per group.

[3] = tested on: carmine mites; test: Spray test against carmine mites on potted kidney beans (Test Example 3); assay type: in vivo, carmine mite; conditions: 20% emulsifiable concentrate diluted 500-fold with water, 10 ml/pot, after 10 days
Procedure: 10 to 15 female adult carmine mites were placed on each leaf of potted kidney beans (2-leaf stage) 9 days old after seeding. After standing in a constant temperature room at 27° C. for a week, a lot of mites in various growth stages were observed on the beans. Each of the emulsifiable concentrates prepared from the compounds of this invention, (1), (2), (3), (4), and (5), in the procedures described in Formulation Example 2 was diluted 500-fold with water and sprayed to the beans on a turntable in a proportion of 10 ml/pot.

SMILES | LD50 (median lethal dose) [1] [μg/housefly] | LC50 [2] [µg/mL] | damage of the kidney beans by the mites [3]
COc1ccc(C(C(=O)OC(C#N)c2cccc(Oc3ccccc3)c2)C(C)C)cc1 (racemic) [Reference Compound (a), reference compound] | 0.35 | – | –
CC(C)[C@H](C(=O)O[C@H](C#N)c1cccc(Oc2ccccc2)c1)c1ccc(OC(F)F)cc1 [Compound (4), α-cyano-3-phenoxybenzyl S-(+)-2-(4-difluoromethoxyphenyl)isovalerate] | 0.038 | 5.9 (≈ 13.1 µM) | hardly observed
COc1ccc([C@@H](C(=O)OC(C#N)c2cccc(Oc3ccccc3)c2)C(C)C)cc1 (stereo partly drawn) [Compound (1), α-cyano-3-phenoxybenzyl S-(+)-2-(4-methoxyphenyl)isovalerate] | 0.18 | – | hardly observed
CC(C)C(C(=O)OC(C#N)c1cccc(Oc2ccccc2)c1)c1ccc(OC(F)F)cc1 (racemic) [(b), reference compound] | 0.15 | – | –
CC(C)[C@H](C(=O)OC(C#N)c1cccc(Oc2ccccc2)c1)c1ccc(OC(F)F)cc1 (stereo partly drawn) [Compound (5), α-cyano-3-phenoxybenzyl S-(+)-2-(4-difluoromethoxyphenyl)isovalerate] | 0.042 | 6.9 (≈ 15.3 µM) | hardly observed
COc1ccc([C@@H](C(=O)OC(C#N)c2cccc(Oc3ccccc3)c2)C(C)C)cc1 (stereo partly drawn) [Compound (2), α-cyano-3-phenoxybenzyl S-(+)-2-(4-methoxyphenyl)isovalerate] | 0.13 | – | hardly observed
COc1ccc([C@@H](C(=O)O[C@H](C#N)c2cccc(Oc3ccccc3)c2)C(C)C)cc1 [Compound (3), (S)-α-cyano-3-phenoxybenzyl S-(+)-2-(4-methoxyphenyl)isovalerate] | 0.10 | – | hardly observed
